Experimental data as given in the Kinase Knowledgebase extract (Sharma et al. 2016).

Molecular target: MAPK14;MAPK11;MAPK12;MAPK13 (human) (UniProt Q16539)
Assay: Assessment of Activity of MAPK11, MAPK12, MAPK13 and MAPK14 Kinases

SMILES | IC50 [µM]
Cc1ccc(C(=O)NC2CC2)cc1Nc1cc(=O)n(C)c2c1cnn2-c1cc(F)ccc1F | < 0.025
Cc1ccc(C(=O)NC2CC2)cc1Nc1cc(=O)n(C)c2c1cnn2-c1cccc(F)c1 | < 0.025
Cn1c(=O)cc(Nc2cc(C(=O)NC3CC3)ccc2Cl)c2cnn(-c3cc(F)ccc3F)c21 | < 0.025
Cn1c(=O)cc(Nc2cc(C(=O)NC3CC3)ccc2F)c2cnn(-c3ccc(F)cc3F)c21 | < 0.025
Cn1c(=O)cc(Nc2cc(C(=O)NC3CC3)ccc2Cl)c2cnn(-c3c(F)cccc3F)c21 | < 0.025
Cc1ccc(C(=O)NC2CC2)cc1Oc1cc(=O)n(C)c2c1cnn2-c1cc(F)ccc1F | < 0.025
Cc1ccc(C(=O)NC2CC2)cc1Oc1cc(=O)n(C)c2c1cnn2-c1ccc(F)cc1F | < 0.025
Cc1ccc(C(=O)NC2CC2)cc1Oc1cc(=O)n(C)c2c1cnn2-c1c(F)cccc1F | < 0.025
Cc1ccc(C(N)=O)cc1Nc1cc(=O)n(C)c2c1cnn2-c1cc(F)ccc1F | < 0.025
Cc1ccc(C(=O)NC2CC2)cc1Nc1cc(=O)n(C)c2c1cnn2-c1c(F)cccc1F | < 0.025

The next lines start with the values.

IC50 [µM] | SMILES
< 0.025 | CCn1c(=O)cc(Oc2cc(C(=O)NC3CC3)ccc2C)c2cnn(-c3ccc(F)cc3)c21
< 0.025 | Cc1ccc(C(=O)NC2CC2)cc1Oc1cc(=O)n(C)c2c1cnn2-c1cccc(F)c1
0.0021 | Cn1c(=O)cc(Nc2cc(C(=O)NC3CC3)ccc2Cl)c2cnn(-c3ccc(F)cc3)c21
< 0.025 | CCn1c(=O)cc(Nc2cc(C(=O)NC3CC3)ccc2C)c2cnn(-c3ccc(F)cc3)c21
< 0.025 | Cc1ccc(C(N)=O)cc1Nc1cc(=O)n(C)c2c1cnn2-c1ccc(F)cc1F
0.0016 | CONC(=O)c1ccc(C)c(Nc2cc(=O)n(C)c3c2cnn3-c2ccc(F)cc2F)c1
0.0017 | CCn1c(=O)cc(Nc2cc(C(=O)NC3CC3)ccc2Cl)c2cnn(-c3ccc(F)cc3)c21
0.0012 | CCn1c(=O)cc(Nc2cc(C(=O)NC3CC3)ccc2Cl)c2cnn(-c3ccc(F)cc3F)c21
